One assay concerns Cor26 CRH mice. Kind of assay: Sleep EEG/EMG recording of REMS levels in Cor26 CRH mice treated with CRH-R1 antagonist. The following applies: 50 mg/kg/d via drinking water; for REMS levels: CRH-overexpressing Cor26 CRH mice.
In assay [1] the test system is mice overexpressing CRH in the forebrain. The following applies: Kimura et al. 2010; cited from earlier work.
Another assay relates to CRH-COE^CNS mice. Briefly: Sleep EEG/EMG recording of REMS activity in CRH-COE^CNS mice treated with CRH-R1 antagonist. In kind it is in vivo, mouse. The note with it: 50 mg/kg/d via drinking water; for REMS activity: CRH-COE^CNS mice, versus baseline, significant beginning with treatment day two (DMP-696 P<0.05; SSR125543 P≦0.035). How it is done: Experiments were conducted with two different mouse lines of excessive central CRH secretion and their respective control littermates (CL). Mice of the CRH-COE^CNS line are characterised by CRH-overexpression within the whole CNS, whereas mice of the Cor26 CRH line display a CRH-overexpression specific to CRH-ergic neurons of the CNS. Three different CRHR1 antagonists were tested. […] In all cases, animals were left to recover from EEG/EMG-electrode implantation for two weeks, after which two days of baseline recording were initiated. Treatment with CRH-R1 antagonist or respective vehicle control commenced thereafter for five consecutive days. Antagonists were applied through the drinking water at a daily dose of 50 mg/kg body weight. EEG and EMG recordings were manually scored as wake, non-REMS (NREMS), and REMS in four second epochs by an experienced evaluator.

Consider `CCC(CC)Oc1cc(C)nc(Oc2c(C)cc(C)cc2C)c1C` [CP-316,311], for which the REMS levels entry in the assay on Cor26 CRH mice (50 mg/kg/day) is recorded as “apparently seemed weak”; with Cor26 CRH mice (listed as CP-316311, 50 mg/kg/day), “suppressed”. The “REMS levels, area under the curve (AUC) within the light period, baseline versus treatment day three” value with Cor26 CRH mice (Cor26 CRH mice, P=0.006) was “significant decrease”.

With `COCC(COC)Nc1nc(C)nc2c(-c3ccc(Cl)cc3Cl)c(C)nn12` [DMP-696], the REM enhancement entry in assay [1] is reported as “reverse the REM enhancement”. Also, in the assay with CRH-COE^CNS mice (CRH-COE^CNS animals, treatment day three), the “REMS activity, treatment day three” value is “strongest suppression”. In addition, the REMS activity entry was “significant decrease” in the assay with CRH-COE^CNS mice (50 mg/kg/day) and “suppressed” with CRH-COE^CNS mice (listed as DMP696, 50 mg/kg/day).

The values are drawn from patent US20150278438A1, “GENETIC PREDICTORS OF RESPONSE TO TREATMENT WITH CRHR1 ANTAGONISTS” (MAX-PLANCK-GESELLSCHAFT ZUR FÖRDERUNG DER WISSENSCHAFTEN …, priority 2012, published 2015).
